Molecular target: TrkA (Homo sapiens (Human), UniProt P04629)
Test: TrkA Omnia Assay
Assay type: biochemical
Conditions: averaged IC50; 20 nM enzyme, 500 μM ATP, 10 μM peptide substrate
In short: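 Continuous fluorescent kinase read-out (ex 360 nm, em 485 nm) over 70 min, with initial rates fitted to 4- or 5-parameter logistic curves for IC50. Final conditions: 500 μM ATP, 10 μM Omnia Tyr Peptide #4, 20 nM TrkA, MOPS pH 7.5 buffer with MgCl2 and Triton X-100; enzyme and compound preincubated 10 min at ambient temperature.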

Chain of TrkA (P04629 33-796): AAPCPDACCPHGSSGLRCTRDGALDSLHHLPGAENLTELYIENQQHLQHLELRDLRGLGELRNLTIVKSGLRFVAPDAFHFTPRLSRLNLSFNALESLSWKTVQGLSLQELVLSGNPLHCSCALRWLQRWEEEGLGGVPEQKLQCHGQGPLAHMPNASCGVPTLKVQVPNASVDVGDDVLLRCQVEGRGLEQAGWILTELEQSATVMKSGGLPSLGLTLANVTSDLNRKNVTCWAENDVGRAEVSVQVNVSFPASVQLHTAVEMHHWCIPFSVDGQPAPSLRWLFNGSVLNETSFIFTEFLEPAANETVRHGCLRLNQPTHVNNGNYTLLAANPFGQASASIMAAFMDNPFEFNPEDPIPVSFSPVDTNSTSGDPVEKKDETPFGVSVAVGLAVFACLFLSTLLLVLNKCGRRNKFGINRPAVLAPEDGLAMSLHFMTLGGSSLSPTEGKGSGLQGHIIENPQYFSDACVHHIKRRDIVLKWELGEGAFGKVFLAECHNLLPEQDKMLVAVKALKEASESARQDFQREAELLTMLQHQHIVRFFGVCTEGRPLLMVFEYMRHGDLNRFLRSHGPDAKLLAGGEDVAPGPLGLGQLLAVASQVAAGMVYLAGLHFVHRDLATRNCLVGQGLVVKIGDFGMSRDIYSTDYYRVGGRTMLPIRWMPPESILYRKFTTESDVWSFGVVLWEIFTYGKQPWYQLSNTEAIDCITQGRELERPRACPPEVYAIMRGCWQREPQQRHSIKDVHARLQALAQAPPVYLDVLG

Structure (SMILES) | IC50 [nM]
COCCN1C[C@@H](NC(=O)Nc2c(C)c(-c3ccn(C)c(=O)c3)nn2-c2ccccc2)[C@H](c2ccc(F)c(Cl)c2)C1 (relative stereo) [Example 304, 1-(trans-4-(3-chloro-4-fluorophenyl)-1-(2-methoxyethyl)pyrrolidin-3-yl)-3-(4-methyl-3-(1-methyl-2-oxo-1,2-dihydropyridin-4-yl)-1-phenyl-1H-pyrazol-5-yl)urea] | < 100
COCCN1C[C@@H](NC(=O)Nc2c(C)c(-c3cnn(C)c3)nn2-c2ccccc2)[C@H](c2cnn(C)c2)C1 (relative stereo) [Example 333, 1-(1′,4-dimethyl-1-phenyl-1H,1'H-[3,4′-bipyrazol]-5-yl)-3-(trans-1-(2-methoxyethyl)-4-(1-methyl-1H-pyrazol-4-yl)pyrrolidin-3-yl)urea] | 100 to 1000
CCOc1nn(-c2ccccc2)c(NC(=O)N[C@@H]2CN(CCOC)C[C@H]2c2cccc(C(F)(F)F)c2)c1C (relative stereo) [Example 335, 1-(3-ethoxy-4-methyl-1-phenyl-1H-pyrazol-5-yl)-3-(trans-1-(2-methoxyethyl)-4-(3-(trifluoromethyl)phenyl)pyrrolidin-3-yl)urea] | < 100
COCCN1C[C@@H](NC(=O)Nc2c3c(nn2-c2ccccc2)CCC3)[C@H](c2cncc(F)c2)C1 (relative stereo) [Example 341, 1-(trans-4-(5-fluoropyridin-3-yl)-1-(2-methoxyethyl)pyrrolidin-3-yl)-3-(2-phenyl-2,4,5,6-tetrahydrocyclopenta[c]pyrazol-3-yl)urea] | 100 to 1000
COCCN1C[C@@H](NC(=O)Nc2c(C)c(C)nn2-c2ccccc2)[C@H](c2cncc(Cl)c2)C1 (relative stereo) [Example 343, 1-(trans-4-(5-chloropyridin-3-yl)-1-(2-methoxyethyl)pyrrolidin-3-yl)-3-(3,4-dimethyl-1-phenyl-1H-pyrazol-5-yl)urea] | < 100
COCCN1C[C@@H](NC(=O)Nc2c(C)c(-c3ccccc3)nn2-c2ccccc2)[C@H](c2cncc(F)c2)C1 (relative stereo) [Example 344, 1-(trans-4-(5-fluoropyridin-3-yl)-1-(2-methoxyethyl)pyrrolidin-3-yl)-3-(4-methyl-1,3-diphenyl-1H-pyrazol-5-yl)urea] | < 100
COCCN1C[C@@H](NC(=O)Nc2c(Br)c(-c3ccccc3)nn2-c2ccccc2)[C@H](c2cncc(F)c2)C1 (relative stereo) [Example 435, 1-(4-bromo-1,3-diphenyl-1H-pyrazol-5-yl)-3-(trans-4-(5-fluoropyridin-3-yl)-1-(2-methoxyethyl)pyrrolidin-3-yl)urea] | < 100
COCCN1C[C@@H](NC(=O)Nc2c(Cl)c(-c3ccccc3)nn2-c2ccccc2)[C@H](c2cncc(F)c2)C1 (relative stereo) [Example 436, 1-(4-chloro-1,3-diphenyl-1H-pyrazol-5-yl)-3-(trans-4-(5-fluoropyridin-3-yl)-1-(2-methoxyethyl)pyrrolidin-3-yl)urea] | < 100
COCCN1C[C@@H](NC(=O)Nc2c(C)c(=O)[nH]n2-c2ccccc2)[C@H](c2ccc(Cl)c(F)c2)C1 (relative stereo) [Example 609, 1-((trans)-4-(4-chloro-3-fluorophenyl)-1-(2-methoxyethyl)pyrrolidin-3-yl)-3-(4-methyl-5-oxo-2-phenyl-2,5-dihydro-1H-pyrazol-3-yl)urea] | < 100
COCCN1C[C@@H](NC(=O)Nc2c(C)c(=O)[nH]n2-c2ccccc2)[C@H](c2ccc(F)c(Cl)c2)C1 (relative stereo) [Example 610, 1-((trans)-4-(3-chloro-4-fluorophenyl)-1-(2-methoxyethyl)pyrrolidin-3-yl)-3-(4-methyl-5-oxo-2-phenyl-2,5-dihydro-1H-pyrazol-3-yl)urea] | < 100
COCCN1C[C@@H](NC(=O)Nc2c(C)c(=O)[nH]n2-c2ccccc2)[C@H](c2cc(F)cc(Cl)c2)C1 (relative stereo) [Example 614, 1-((trans)-4-(3-chloro-5-fluorophenyl)-1-(2-methoxyethyl)pyrrolidin-3-yl)-3-(4-methyl-5-oxo-2-phenyl-2,5-dihydro-1H-pyrazol-3-yl)urea] | < 100
COCCN1C[C@@H](NC(=O)Nc2c(C(N)=O)c(C)nn2-c2ccccc2)[C@H](c2ccc(F)c(Cl)c2)C1 (relative stereo) [Example 623, 5-(3-((trans)-4-(3-chloro-4-fluorophenyl)-1-(2-methoxyethyl)pyrrolidin-3-yl)ureido)-3-methyl-1-phenyl-1H-pyrazole-4-carboxamide] | < 100
COCCN1C[C@@H](NC(=O)Nc2c(C(N)=O)c(C)nn2-c2ccccc2)[C@H](c2ccc(Cl)c(F)c2)C1 (relative stereo) [Example 624, 5-(3-((trans)-4-(4-chloro-3-fluorophenyl)-1-(2-methoxyethyl)pyrrolidin-3-yl)ureido)-3-methyl-1-phenyl-1H-pyrazole-4-carboxamide] | < 100
COCCN1C[C@@H](NC(=O)Nc2c(C(N)=O)c(C)nn2-c2ccccc2)[C@H](c2cc(F)cc(Cl)c2)C1 (relative stereo) [Example 625, 5-(3-((trans)-4-(3-chloro-5-fluorophenyl)-1-(2-methoxyethyl)pyrrolidin-3-yl)ureido)-3-methyl-1-phenyl-1H-pyrazole-4-carboxamide] | < 100
COCCN1C[C@@H](NC(=O)Nc2c3c(nn2-c2ccccc2)CCC3)[C@H](c2nccs2)C1 (stereo in doubt) [Example 49, 1-(1-(2-methoxyethyl)-4-(thiazol-2-yl)pyrrolidin-3-yl)-3-(2-phenyl-2,4,5,6-tetrahydrocyclopenta[c]pyrazol-3-yl)urea] | 1000 to 10000
COCC(C(=O)OC)N1CC(NC(=O)Nc2c3c(nn2-c2ccccc2)CCC3)[C@H](c2ccccc2)C1 (stereo in doubt) [Example 258, methyl 3-methoxy-2-((trans)-3-phenyl-4-(3-(2-phenyl-2,4,5,6-tetrahydrocyclopenta[c]pyrazol-3-yl)ureido)pyrrolidin-1-yl)propanoate] | < 100
COCCN1C[C@@H](NC(=O)Nc2cc(C(C)(C)C)nn2-c2ccccc2)[C@H](c2ccccc2)C1 [Example 1, 1-(3-tert-butyl-1-phenyl-H-pyrazol-5-yl)-3-(trans-1-(2-methoxyethyl)-4-phenylpyrrolidin-3-yl)urea] | < 100
COCCN1C[C@@H](NC(=O)Nc2cc(C(C)(C)C)nn2C2CCOCC2)[C@H](c2ccccc2)C1 [Example 34, 1-(3-tert-butyl-1-(tetrahyro-2H-pyran-4-yl)-1H-pyrazol-5-yl)-3-(trans-1-(2-methoxyethyl)-4-phenylpyrrolidin-3-yl)urea] | 1000 to 10000
COCCN1C[C@@H](NC(=O)Nc2c3c(nn2-c2ccccc2)C(C)(C)CC3)[C@H](c2ccccc2)C1 [Example 36, 1-(6,6-dimethyl-2-phenyl-2,4,5,6-tetrahydro-yclopenta [c]pyrazol-3-yl)-3-(trans-1-(2-methoxyethyl)-4-phenyl-pyrrolidin-3-yl)urea] | < 100
COCCN1CC(c2sc(C)nc2C)[C@H](NC(=O)Nc2c3c(nn2-c2ccccc2)CCC3)C1 (stereo partly drawn) [Example 45, 1-((3,4-trans)-4-(2,4-dimethylthiazol-5-yl)-1-(2-methoxyethyl)pyrrolidin-3-yl)-3-(2-phenyl-2,4,5,6-tetrahydrocyclopenta[c]pyrazol-3-yl)urea] | 1000 to 10000
COCCN1CC(NC(=O)Nc2c3c(nn2-c2ccccc2)CCC3)[C@H](c2cccc(OC)c2)C1 (stereo partly drawn) [Example 48, 1-((3,4-trans)-1-(2-methoxyethyl)-4-(3-methoxyphenyl)pyrrolidin-3-yl)-3-(2-phenyl-2,4,5,6-tetrahydrocyclopenta[c]pyrazol-3-yl)urea] | 100 to 1000
COCCN1C[C@@H](NC(=O)Nc2cc(C(F)(F)F)nn2-c2ccccc2)[C@H](c2ccccc2)C1 [Example 53, 1-((3S,4R)-1-(2-methoxyethyl)-4-phenylpyrrolidin-3-yl)-3-(1-phenyl-3-(trifluoromethyl)-1H-pyrazol-5-yl)urea] | < 100
COCCN1C[C@@H](NC(=O)Nc2c(C)c(-c3ccccc3)nn2C)[C@H](c2ccccc2)C1 [Example 54, 1-(1,4-dimethyl-3-phenyl-1H-pyrazol-5-yl)-3-((3S,4R)-1-(2-methoxy-ethyl)-4-phenylpyrrolidin-3-yl)urea] | 1000 to 10000
COCCN1C[C@@H](NC(=O)Nc2cc(C3CC3)nn2C)[C@H](c2cc(F)cc(F)c2)C1 [Example 55, 1-(3-cyclopropyl-1-methyl-1H-pyrazol-5-yl)-3-((3S,4R)-4-(3,5-difluorophenyl)-1-(2-methoxyethyl)pyrrolidin-3-yl)urea] | 100 to 1000
COCCN1C[C@@H](NC(=O)Nc2cc(-c3ccccn3)nn2C)[C@H](c2cc(F)cc(F)c2)C1 [Example 56, 1-((3S,4R)-4-(3,5-difluorophenyl)-1-(2-methoxyethyl)pyrrolidin-3-yl)-3-(1-methyl-3-(pyridin-2-yl)-1H-pyrazol-5-yl)urea] | < 100
COCCN1C[C@@H](NC(=O)Nc2cc(-c3cccnc3)nn2C)[C@H](c2cc(F)cc(F)c2)C1 [Example 57, 1-((3S,4R)-4-(3,5-difluorophenyl)-1-(2-methoxyethyl)pyrrolidin-3-yl)-3-(1-methyl-3-(pyridin-3-yl)-1H-pyrazol-5-yl)urea] | < 100
COCCN1C[C@@H](NC(=O)Nc2cc(-c3cnn(C)c3)nn2C)[C@H](c2ccc(F)c(F)c2)C1 [Example 58, 1-((3S,4R)-4-(3,4-difluorophenyl)-1-(2-methoxyethyl)pyrrolidin-3-yl)-3-(1,1′-dimethyl-1H,1′H-3,4′-bipyrazol-5-yl)urea] | < 100
COCCN1C[C@@H](NC(=O)Nc2cc(-c3cccc(C#N)c3)nn2C)[C@H](c2ccc(F)c(F)c2)C1 [Example 59, 1-(3-(3-cyanophenyl)-1-methyl-1H-pyrazol-5-yl)-3-((3S,4R)-4-(3,4-difluorophenyl)-1-(2-methoxyethyl)pyrrolidin-3-yl)urea] | < 100

Source: patent US10323022B2, “Pyrrolidinyl urea, pyrrolidinyl thiourea and pyrrolidinyl guanidine compounds as TrkA kinase inhibitors” (Array BioPharma Inc., priority 2011, dated 2019)
